In PMC3352935, “Enzymatic Analysis of Recombinant Japanese Encephalitis Virus NS2B(H)-NS3pro Protease with Fluorogenic Model Peptide Substrates” (PLoS ONE, 2012):
Where “and” joins values, the source holds several entries; their conditions need not be identical. Equal entries are not always repeated. Where two headings read alike, the source gives them in different places. Square brackets hold non-standard residues; d marks the D form. Peptide text beside a SMILES is read from it. * marks the point of attachment. AMC = Cc1cc(=O)oc2cc(N*)ccc12; Nle = CCCC[C@H](N)C(=O)O; Bz = O=C(c1ccccc1)*

Tests used:
JEV NS2B(H)-NS3pro [1] = molecular target: T1, JEV NS2B(H)-NS3pro (Japanese encephalitis virus, UniProt P32886, DEL1469-1493); test: Enzymatic activity assay with fluorogenic peptide substrates (Michaelis-Menten kinetics); format: biochemical; details: JEV protease
T1 construct: PCR-amplify the NS2B(H) region (amino acids 51–95 and 121–131); The N-terminal one-third (180 residues) of NS3 represents the protease domain NS3(pro); made in house; host or cells: E. coli (the text names both C41 and BL21), vector pTrcHisA

NS2B/NS3 protease of YFV = details: cited from earlier work
[2] = test system: NS2B/NS3 protease of DEN2; details: cited from earlier work
JEV NS2B(H)-NS3pro [3] = details: 25 mM NaCl; 100 µM Pyr-RTKR-amc, 0.5 µM enzyme, 50 mM Tris-HCl pH 9.5, 37°C
[4] = test system: dengue virus NS3 protease; details: 100 mM NaCl; cited from earlier work
N2B-NS3 protease of WNV = details: cited from earlier work
JEV NS2B(H)-NS3pro [5] = test: Enzyme inhibition by aprotinin, Pyr-RTKR-amc substrate; format: biochemical, Japanese encephalitis virus; details: 0.5 µM enzyme, 50 mM Tris-HCl pH 9.5, 20% glycerol, aprotinin 0-20 µM, 37°C 30 minutes pre-incubation, 10 µM Pyr-RTKR-amc, triplicate
WNV NS3 protease = details: cited from earlier work
DEN2 NS3 protease = details: cited from earlier work
MVEV NS2B-NS3 = details: cited from earlier work

Cc1cc(=O)oc2cc(NC(=O)[C@H](CCCNC(=N)N)NC(=O)[C@H](CCCNC(=N)N)NC(=O)CNC(=O)OC(C)(C)C)ccc12 [Boc-GRR-amc]
fold higher K m than Boc-LRR-amc (JEV NS2B(H)-NS3pro [1]): 3 fold | fold higher catalytic efficiency than Boc-LRR-amc (JEV NS2B(H)-NS3pro [1]): about 10 fold | K m (NS2B/NS3 protease of YFV): 142 µM | k cat (NS2B/NS3 protease of YFV): 0.034 s⁻¹ | K m [2]: 150 µM | k cat [2]: 0.13 s⁻¹

CCCC[C@H](NC(=O)c1ccccc1)C(=O)N[C@@H](CCCCN)C(=O)N[C@@H](CCCNC(=N)N)C(=O)N[C@@H](CCCNC(=N)N)C(=O)Nc1ccc2c(C)cc(=O)oc2c1 [Bz-nKRR-amc] (Bz-[Nle]KRR-{AMC})
fold higher k cat/K m of benzoyl compared to acetyl group (Ac-nKRR-amc) (JEV NS2B(H)-NS3pro [1]): approximately 1.4 fold

[Cl-].[Na+] [NaCl]
inhibition of cleavage of Pyr-RTKR-amc (JEV NS2B(H)-NS3pro [3]): about 50% | inhibition of the dengue virus NS3 protease [4]: 40–50%

Abz-(R)4SAGnY-amide
k cat/K m [2]: 11087 M⁻¹ s⁻¹

Pyr-RTKR-amc
k cat [2]: 0.02 s⁻¹ and 0.013 s⁻¹ | K m (N2B-NS3 protease of WNV): 71 µM | k cat (N2B-NS3 protease of WNV): 6.3 s⁻¹ | k cat/K m (N2B-NS3 protease of WNV): 88000 M⁻¹ s⁻¹

aprotinin
IC50 (JEV NS2B(H)-NS3pro [5]): 4130 ± 170 nM | Ki (WNV NS3 protease; WNV NS3 protease): 162 nM | Ki (WNV NS3 protease; non-cleavable form of WNV NS2B-NS3pro): 26 nM | Ki (DEN2 NS3 protease): 26 nM | IC50 (MVEV NS2B-NS3): ~8000 nM and 7800 nM
